Reference: paper PMC12066977, “Alkyl Tail Variation on Chalcone‐Based Quaternary Pyridinium Salts as Rule‐of‐Thumb for Antimicrobial Activity” (Archiv Der Pharmazie, 2025)

Experiments:
[1] = Cell viability and proliferation assay (WST8/CCK-8); format: cell-based; settings: African green monkey, Vero cells (ATCC CCL-81), 48 h treatment, CCK-8; read-out: CC50 [95% CI] Vero cells
Protocol: Vero cell line (ATCC CCL‐81) was selected as a model system to investigate the overall effect of chalcones on non‐malignant mammalian cells. […] For experiments, cells were seeded into 96‐well plates at 10^4 cells/well and incubated at 37°C for 24 h. Following washes with PBS, the cell monolayer was incubated with 100 µL of medium containing the twofold serial dilutions of the compounds. Both untreated cells and cells incubated with medium containing solvent dilutions were included in each experiment as controls. The cell viability was assessed by a WST8‐based assay according to the manufacturer's instructions (CCK‐8, Cell Counting Kit‐8, Dojindo Molecular Technologies, Rockville, MD, USA). After 48 h of incubation, culture medium was removed from each well, the monolayer was washed with PBS, and 100 µL of fresh medium containing 10 µL of CCK‐8 solution was added. Following a 2 h incubation at 37°C, the OD450nm was read, and data were expressed as the percentage of cell viability relative to the untreated controls. The CC50 was obtained on the corresponding dose–response curves generated as previously reported for IC50 values. Experiments were carried out in triplicate in three biological replicates.

[2] = test system: human red blood cells (hRBCs); assay: Hemolytic activity assay; format: cell-based; settings: 25 µM, 90 min, 37°C
Protocol: The hemolytic activity of some selected compounds was evaluated as the amount of hemoglobin released by the disruption of human red blood cells (hRBCs). For the experiments, fresh hRBCs were collected by centrifugation at 1500g for 10 min, washed three times with PBS, and resuspended to a final concentration of 4% w/v hRBCs in PBS. Then, 100 µL of hRBCs suspension and an equal volume of the twofold dilutions of the antimicrobial peptides were mixed in a 96‐well plate and incubated for 90 min at 37°C. After centrifugation at 1000g for 5 min, the supernatants were transferred into a clear 96‐well plate, and OD405nm was read. Untreated hRBCs (incubated with PBS) and hRBCs incubated with 1% Triton X‐100 were employed as negative and positive controls, respectively. The hemolysis percentage was calculated as [OD405nm (sample) − OD4_05nm (negative control)]/[OD405nm (positive control) − OD405nm (negative control)] × 100. Minimal hemolytic concentrations (MHCs) were defined as the compound concentration causing 10% hemolysis. Three independent experiments were performed in triplicate.

E. coli ATCC 25922 = assay: Broth microdilution antimicrobial assay (MIC, IC50); format: cell-based; settings: Escherichia coli, 24 h
Protocol: (§1) Reference strains of Staphylococcus aureus (ATCC 25923), Escherichia coli (ATCC 25922), and Candida albicans (ATCC 10231) were used in this study as microbial models. These strains were purchased from the American Type Culture Collection (ATCC); bacterial cultures were routinely grown on 5% blood agar plate, while fungal cultures on Sabouraud Dextrose Agar (Biolife […]., Milan, Italy). […] In short, microbial inocula were prepared at 0.5 McFarland in PBS and, subsequently, bacterial suspensions were diluted 1:200 in Mueller-Hinton broth (Sigma-Aldrich, St. Louis, MO, USA), while fungal inoculum was diluted 1:20 in RPMI-1640 medium (Gibco®, ThermoFisher Scientific Inc., Waltham, MA, USA), containing glucose 2%, 0.3% levo-glutamine buffered to pH 7.0 with 0.165 M 3-(N-morpholino) propanesulfonic acid (MOPS). A total of 100 μL of these microbial suspensions was introduced into a 96-well microplate and incubated with 100 μL of the compounds, two-fold serially diluted in the range of 100-0.19 μM. Positive controls (microbial suspensions in regular media), negative controls (only compounds), and solvent controls (microbial suspensions incubated with DMSO dilutions) were included in the tests. The plate was incubated at 37°C for 24 h, and subsequently the optical density at 630 nm (OD630nm) was spectrophotometrically measured. Experiments were carried out in triplicate in three biological replicates. […] Statistical analysis was carried out by using GraphPad Prism version 9.4.1 for Windows (GraphPad Software, San Diego, California USA, www.graphpad.com). ^a MIC (Minimum Inhibitory Concentration) were determined in vitro by means of a standardized microdilution assay, in compliance with the Clinical and laboratory Standard Institute (CLSI) guidelines (30). Microbial suspensions were prepared at 0.5 McFarland in PBS, then diluted in the media and transferred in a 96 micro-well plate together with the serially 2-fold dilutions of the compounds. After 24h of incubation at 37°C, microbial growths were evaluated by measuring the Optical Density at 600 nm, then percentage values were obtained as relative to the positive controls (microbial suspensions in regular media).

C. albicans ATCC 10231 = assay: as above; format: cell-based; settings: Candida albicans, 24 h
Protocol: as §1

S. aureus ATCC 25923 = assay: as above; format: cell-based; settings: Staphylococcus aureus
Protocol: as §1

C. albicans biofilm = assay: Inhibition of biofilm formation (crystal violet staining); format: cell-based, Candida albicans; settings: 3.125 µM; 24 h, CV staining
Protocol: The ability of some selected compounds to inhibit biofilm formation was assessed by established protocols with minor modifications. In short, exponential cultures of S. aureus, E. coli, and C. albicans grown in Tryptic Soy broth (TSB, Sigma‐Aldrich, St. Louis, MO, USA) were adjusted to a final density of 10^5 CFU/mL. Aliquots of 100 µL of the microbial cultures were transferred to a 96‐well flat‐bottom polystyrene microplate, and then incubated at 37°C for 90 min to promote bacterial adhesion. Thereafter, wells were slowly rinsed with PBS to remove nonattached cells, and 100 µL of TSB supplemented with 1% glucose containing the twofold serial dilutions of the compounds was added. After incubation at 37°C for 24 h, the free‐floating cells were removed, and the biofilms were carefully washed with PBS. The biomass was quantified by a standardized crystal violet (CV) staining. Briefly, 100 µL of CV solution (0.1% in water) was added to each well containing a completely air‐dried biofilm, and incubated for 30 min at 37°C. […] Finally, the colored supernatants were transferred to a new microplate, and the OD550nm was measured. The percentage inhibition of biofilm formation in the different experimental conditions was calculated relative to the biofilm mass formed in the absence of compounds (positive control).

C#CCOc1ccc(C(=O)/C=C/c2ccc[n+](CCCCCCCCCCCCCC)c2)c(OCC#C)c1.[Br-] [Compound 6, (E)‐3‐{3‐[2,4‐Bis(prop‐2‐yn‐1‐yloxy)phenyl]‐3‐oxoprop‐1‐en‐1‐yl}‐1‐tetradecylpyridin‐1‐ium bromide]
CC50 at 48 h [1]: 6.16 µM
hemolytic activity [2]: 88.7%
IC50 (E. coli ATCC 25922; ATCC25922, 50% growth inhibition, read-out: IC50 [95% confidence interval] Escherichia coli): 36.3 µM
MIC (E. coli ATCC 25922; ATCC25922, broth microdilution, 37°C): 50 µM
IC50 (C. albicans ATCC 10231; ATCC10231, 50% growth inhibition, read-out: IC50 [95% confidence interval] Candida albicans): 1.32 µM
MIC (C. albicans ATCC 10231; ATCC10231, broth microdilution, 37°C): 1.56 µM
IC50 (S. aureus ATCC 25923; ATCC25923, 50% growth inhibition, 24 h, read-out: IC50 [95% confidence interval] Staphylococcus aureus): 1.3 µM
MIC (S. aureus ATCC 25923; ATCC25923, 24 h, broth microdilution, 37°C): 3.12 µM
reduction in C. albicans biofilm formation (C. albicans biofilm): 68.3%
